Assay results as given in US20230151003A1, “COMPOUNDS AND METHODS OF USE” (Exelixis, Inc., priority 2020, published 2023).

Experiments:
[1] = target: KDR (Homo sapiens, UniProt P35968); assay: Human KDR kinase assay (HTRF KinEase); format: biochemical; parameters: Human KDR (residues 790-1356; CarnaBio, 0.1 ng/ well); purchased CarnaBio; details: Table 2 Biological Activities, ATP at Km (4.0 μM)
Protocol: (§1) Kinase activity and compound inhibition were investigated using the HTRF® KinEase assay (Cisbio Cat #62TKOPEB) per manufacturer's instructions. In short, compounds were delivered in 300 nL volumes at 10 different concentrations in DMSO (3% final) to empty 384-well assay plates (Corning cat #3824). A mixture of enzyme, 1 μM biotynlated peptide substrate, and buffer in 10 μL volume was added. The assay was started upon the addition of ATP (at Km). The 10 μL reaction was incubated at room temperature. The reaction was stopped upon the addition of detection buffer containing streptavidin-XL665 (5 μL) and TK antibody-Eu3+ (5 μL). After a 60 min incubation at room temperature, the fluorescence at 665 nm and 620 nm was read on an Envision microplate reader (Perkin Elmer). Kinase activity normalized to DMSO (100% activity) and reference compound at 1 μM and (0% activity) was calculated using the fluorescence ratio […]. IC50 values were calculated by nonlinear regression analysis using a 4-parameter logistic curve fit in ActivityBase XE (IDBS).
Human KDR (residues 790-1356; CarnaBio, 0.1 ng/ well) was incubated with enzymatic buffer (Cisbio) supplemented with 5 mM MgCl2, 1 mM MnCl2, and 1 mM DTT. The mixture was added to the pre-plated compounds. The reaction was initiated upon addition of ATP at Km (4.0 μM). The reaction was incubated at room temperature for 40 min and stopped upon the addition of SA-XL665 and TK-antibody both diluted in EDTA-containing kinase detection buffer (Cisbio). The kinase activity was calculated as stated above and the IC50 values were reported.

[2] = target: T1, Human AXL (Homo sapiens, UniProt P30530); assay: Human AXL kinase assay (HTRF KinEase); format: biochemical; details: Table 2 Biological Activities, ATP at Km (1.0 μM)
T1 construct: Human AXL (residues 464-885; CarnaBio, 1 ng/ well); purchased CarnaBio
T1 sequence (P30530 464-885 isoform P30530-2): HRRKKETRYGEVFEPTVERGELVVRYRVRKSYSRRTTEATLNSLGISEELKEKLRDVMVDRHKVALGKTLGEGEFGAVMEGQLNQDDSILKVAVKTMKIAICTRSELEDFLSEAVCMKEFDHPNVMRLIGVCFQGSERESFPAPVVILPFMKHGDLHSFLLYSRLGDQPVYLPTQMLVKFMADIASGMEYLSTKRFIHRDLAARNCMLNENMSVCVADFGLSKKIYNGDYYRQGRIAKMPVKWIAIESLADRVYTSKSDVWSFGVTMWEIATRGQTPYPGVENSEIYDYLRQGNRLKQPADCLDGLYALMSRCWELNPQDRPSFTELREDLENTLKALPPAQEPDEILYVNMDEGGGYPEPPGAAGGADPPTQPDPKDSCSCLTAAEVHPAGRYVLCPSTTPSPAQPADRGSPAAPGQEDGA
Protocol: as §1
Human AXL (residues 464-885; CarnaBio, 1 ng/ well) was incubated with enzymatic buffer (Cisbio) supplemented with 5 mM MgCl2, 1 mM DTT, and Supplemental Enzymatic Buffer (SEB; Cisbio). The mixture was added to the pre-plated compounds. The reaction was initiated upon addition of ATP at Km (1.0 μM). The reaction was incubated at room temperature for 50 min and stopped upon the addition of SA-XL665 and TK-antibody both diluted in EDTA-containing kinase detection buffer (Cisbio). The kinase activity was calculated as stated above and the IC50 values were reported.

Chain of KDR (P35968 790-1356): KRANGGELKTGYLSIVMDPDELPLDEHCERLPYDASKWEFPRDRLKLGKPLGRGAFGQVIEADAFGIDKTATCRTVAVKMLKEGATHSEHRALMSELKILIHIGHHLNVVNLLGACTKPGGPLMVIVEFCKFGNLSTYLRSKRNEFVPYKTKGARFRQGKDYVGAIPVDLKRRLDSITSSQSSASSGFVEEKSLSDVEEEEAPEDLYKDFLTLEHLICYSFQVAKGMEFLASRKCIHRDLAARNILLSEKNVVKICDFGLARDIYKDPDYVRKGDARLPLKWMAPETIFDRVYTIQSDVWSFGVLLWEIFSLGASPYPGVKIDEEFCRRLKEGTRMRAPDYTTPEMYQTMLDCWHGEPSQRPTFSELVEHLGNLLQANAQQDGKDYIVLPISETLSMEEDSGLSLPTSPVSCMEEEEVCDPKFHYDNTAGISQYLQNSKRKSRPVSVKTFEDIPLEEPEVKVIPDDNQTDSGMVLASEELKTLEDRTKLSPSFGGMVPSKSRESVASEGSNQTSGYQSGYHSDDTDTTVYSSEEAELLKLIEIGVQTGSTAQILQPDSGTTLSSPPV

Compound | IC50 [1] [µM] | IC50 [2] [µM]
COc1cc2nccc(Oc3ccc(NC(=O)c4c(C)n(C)cc(-c5ccc(F)cn5)c4=O)cc3F)c2nc1OC [Compound 71, N-[4-[(6,7-Dimethoxy-1,5-naphthyridin-4-yl)oxy]-3-fluorophenyl]-5-(5-fluoropyridin-2-yl)-1,2-dimethyl-4-oxopyridine-3-carboxamide] | 0.3 to 1 | –
COc1cc2nccc(Oc3ccc(NC(=O)c4cc(C(C)=O)c(C)n(-c5ccc(F)cn5)c4=O)cc3F)c2nc1OC [Compound 59, 5-Acetyl-N-[4-[(6,7-dimethoxy-1,5-naphthyridin-4-yl)oxy]-3-fluorophenyl]-1-(5-fluoropyridin-2-yl)-6-methyl-2-oxopyridine-3-carboxamide] | 0.3 to 1 | ≤ 0.1
COCCOc1cc2nccc(Oc3ccc(NC(=O)c4ccc(C)n(-c5ccc(F)cn5)c4=O)cc3F)c2nc1OC [Compound 50, N-[3-Fluoro-4-[[6-methoxy-7-(2-methoxyethoxy)-1,5-naphthyridin-4-yl]oxy]phenyl]-1-(5-fluoropyridin-2-yl)-6-methyl-2-oxopyridine-3-carboxamide] | ≤ 0.1 | ≤ 0.1
COc1cc2nccc(Oc3ccc(NC(=O)c4c(C)nc(C)c(-c5ccc(F)cn5)c4O)cc3)c2nc1OC [Compound 216, N-[4-[(6,7-Dimethoxy-1,5-naphthyridin-4-yl)oxy]phenyl]-5-(5-fluoropyridin-2-yl)-4-hydroxy-2,6-dimethylpyridine-3-carboxamide] | – | ≤ 0.1
Cc1ccc(C(=O)Nc2ccc(Oc3ccnc4cccnc34)c(F)c2)c(=O)n1-c1ccc(F)cn1 [Compound 48, N-[3-Fluoro-4-(1,5-naphthyridin-4-yloxy)phenyl]-1-(5-fluoropyridin-2-yl)-6-methyl-2-oxopyridine-3-carboxamide] | 0.3 to 1 | ≤ 0.1
COc1cc2nccc(Oc3ccc(NC(=O)c4cnc(C)c(-c5ccc(F)cn5)c4O)cc3F)c2nc1OC [Compound 85, N-[4-[(6,7-Dimethoxy-1,5-naphthyridin-4-yl)oxy]-3-fluorophenyl]-5-(5-fluoropyridin-2-yl)-4-hydroxy-6-methylpyridine-3-carboxamide] | ≤ 0.1 | ≤ 0.1
COc1cc2nccc(Oc3ccc(NC(=O)c4ccc(C)n(-c5ncc(F)cc5C)c4=O)cc3F)c2nc1OC [Compound 51, N-[4-[(6,7-Dimethoxy-1,5-naphthyridin-4-yl)oxy]-3-fluorophenyl]-1-(5-fluoro-3-methylpyridin-2-yl)-6-methyl-2-oxopyridine-3-carboxamide] | 0.1 to 0.3 | ≤ 0.1
COc1cc2nccc(Oc3ccc(NC(=O)c4ccc(C)n(-c5ccncc5F)c4=O)cc3F)c2nc1OC [Compound 220, N-[4-[(6,7-Dimethoxy-1,5-naphthyridin-4-yl)oxy]-3-fluorophenyl]-1-(3-fluoropyridin-4-yl)-6-methyl-2-oxopyridine-3-carboxamide] | – | ≤ 0.1
COc1cc2nccc(Oc3ccc(NC(=O)c4c(C)n(C)cc(-c5ccc(F)cn5)c4=O)cc3)c2nc1OC [Compound 72, N-[4-[(6,7-Dimethoxy-1,5-naphthyridin-4-yl)oxy]phenyl]-5-(5-fluoropyridin-2-yl)-1,2-dimethyl-4-oxopyridine-3-carboxamide] | 0.3 to 1 | –
COc1cc2nccc(Oc3ccc(NC(=O)c4c(C)ccn(-c5ccc(F)cn5)c4=O)cc3F)c2nc1OC [Compound 41, N-[4-[(6,7-Dimethoxy-1,5-naphthyridin-4-yl)oxy]-3-fluorophenyl]-1-(5-fluoropyridin-2-yl)-4-methyl-2-oxopyridine-3-carboxamide] | ≤ 0.1 | ≤ 0.1
Cc1ccc(C(=O)Nc2ccc(Oc3ccnc4cnc(Cl)cc34)c(F)c2)c(=O)n1-c1ccc(F)cn1 [Compound 54A, N-[4-[(6-Chloro-1,7-naphthyridin-4-yl)oxy]-3-fluorophenyl]-1-(5-fluoropyridin-2-yl)-6-methyl-2-oxopyridine-3-carboxamide] | 0.3 to 1 | –
COc1cc2nccc(Oc3ccc(NC(=O)c4ccc(C)n(-c5ccncc5)c4=O)cc3F)c2nc1OC [Compound 221, N-[4-[(6,7-Dimethoxy-1,5-naphthyridin-4-yl)oxy]-3-fluorophenyl]-6-methyl-2-oxo-1-pyridin-4-ylpyridine-3-carboxamid] | – | ≤ 0.1
COc1ccc2nccc(Oc3ccc(NC(=O)c4ccc(C)n(-c5ccc(F)cn5)c4=O)cc3F)c2c1 [Compound 49, N-[3-Fluoro-4-(6-methoxyquinolin-4-yl)oxyphenyl]-1-(5-fluoropyridin-2-yl)-6-methyl-2-oxopyridine-3-carboxamide] | 0.1 to 0.3 | –
COc1cnc2c(Oc3ccc(NC(=O)c4c(C)nc(C)c(-c5ccc(F)cn5)c4O)cc3F)ccnc2c1 [Compound 217, N-[3-Fluoro-4-[(7-methoxy-1,5-naphthyridin-4-yl)oxy]phenyl]-5-(5-fluoropyridin-2-yl)-4-hydroxy-2,6-dimethylpyridine-3-carboxamide] | – | ≤ 0.1

Now from value to compound:

IC50 [1] [µM] | IC50 [2] [µM] | Compound
– | ≤ 0.1 | COCc1nc(C)c(-c2ccc(F)cn2)c(O)c1C(=O)Nc1ccc(Oc2ccnc3cc(OC)c(OC)nc23)c(F)c1 [Compound 214, N-[4-[(6,7-Dimethoxy-1,5-naphthyridin-4-yl)oxy]-3-fluorophenyl]-5-(5-fluoropyridin-2-yl)-4-hydroxy-2-(methoxymethyl)-6-methylpyridine-3-carboxamid]
≤ 0.1 | ≤ 0.1 | COc1cc2nccc(Oc3ccc(NC(=O)c4c(C)ncc(-c5ccc(F)cn5)c4O)cc3F)c2nc1OC [Compound 68, N-[4-[(6,7-Dimethoxy-1,5-naphthyridin-4-yl)oxy]-3-fluorophenyl]-5-(5-fluoropyridin-2-yl)-4-hydroxy-2-methylpyridine-3-carboxamide]
0.3 to 1 | ≤ 0.1 | COc1ccc2nccc(Oc3ccc(NC(=O)c4ccc(C)n(-c5ncc(F)cc5C)c4=O)cc3F)c2n1 [Compound 53, N-[3-Fluoro-4-[(6-methoxy-1,5-naphthyridin-4-yl)oxy]phenyl]-1-(5-fluoro-3-methylpyridin-2-yl)-6-methyl-2-oxopyridine-3-carboxamide]
≤ 0.1 | ≤ 0.1 | COc1cc2nccc(Oc3ccc(NC(=O)c4c(C)ncc(-c5ccccn5)c4O)cc3F)c2nc1OC [Compound 69, N-[4-[(6,7-Dimethoxy-1,5-naphthyridin-4-yl)oxy]-3-fluorophenyl]-4-hydroxy-2-methyl-5-pyridin-2-ylpyridine-3-carboxamide]
0.3 to 1 | ≤ 0.1 | COc1cnc2c(Oc3ccc(NC(=O)c4ccc(C)n(-c5ncc(F)cc5C)c4=O)cc3F)ccnc2c1 [Compound 52, N-[3-Fluoro-4-[(7-methoxy-1,5-naphthyridin-4-yl)oxy]phenyl]-1-(5-fluoro-3-methylpyridin-2-yl)-6-methyl-2-oxopyridine-3-carboxamide]
– | ≤ 0.1 | COc1cc2nccc(Oc3ccc(NC(=O)c4c(C)nc(C)c(-c5ccc(F)cn5)c4O)cc3F)c2nc1OC [Compound 218, N-[4-[(6,7-Dimethoxy-1,5-naphthyridin-4-yl)oxy]-3-fluorophenyl]-5-(5-fluoropyridin-2-yl)-4-hydroxy-2,6-dimethylpyridine-3-carboxamide]
0.3 to 1 | – | COc1cnc2c(Oc3ccc(NC(=O)c4c(C)n(C)cc(-c5ccc(F)cn5)c4=O)cc3F)ccnc2c1 [Compound 73, N-[3-Fluoro-4-[(7-methoxy-1,5-naphthyridin-4-yl)oxy]phenyl]-5-(5-fluoropyridin-2-yl)-1,2-dimethyl-4-oxopyridine-3-carboxamide]
0.3 to 1 | – | COc1cc2nccc(Oc3ccc(NC(=O)c4cc(C#N)c(C)n(-c5ccc(F)cn5)c4=O)cc3F)c2nc1OC [Compound 56, 5-Cyano-N-[4-[(6,7-dimethoxy-1,5-naphthyridin-4-yl)oxy]-3-fluorophenyl]-1-(5-fluoropyridin-2-yl)-6-methyl-2-oxopyridine-3-carboxamide]
